Source: US9527828B2, “Method for expanding hematopoietic stem cells using heterocyclic compound” (Nissan Chemical Industries, Ltd., priority 2007, dated 2016)

How the values were obtained:
CD34^+CD38^− cells [1] = test: Expansion of CD34+CD38− cells from human cord blood-derived CD34+ cells (Example 2); type: cell-based; conditions: Homo sapiens, 168 h, 1 μg/mL compound, 50 ng/mL SCF, StemSpan SFEM, 7 days; based on number of CD34+CD38− cells in the absence of compound; read-out: Expansion efficiency
In short: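 Human cord blood CD34+ cells (10000 cells/mL) were cultured 7 days at 37 °C, 5% CO2 in StemSpan SFEM with 50 ng/mL SCF and compound at 1 μg/mL final (0.1% DMSO). Viable cells were counted by trypan blue and the CD34+CD38− fraction by flow cytometry with PI exclusion; expansion is relative to no-compound culture, graded A (≥10), B (5–<10), C (3–<5).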

CD34^+CD38^− cells [2] = test: Expansion of CD34+CD38− cells using cord blood-derived CD34+CD38− cells (Example 6); type: cell-based, human; conditions: 1 μg/mL compound, CD34+CD38− starting cells, 50 ng/mL SCF, 7 days; based on number of CD34+CD38− cells in the presence of 10 ng/mL TPO
Procedure: The human cord blood-derived CD34^+CD38^− cells collected in Example 1 were plated on a 24-well plate (TPP) (from 3000 to 10000 cells/1 mL/well). As the culture medium, StemSpan SFEM (Stemcell Technologies) containing 50 ng/mL SCF (Peprotech) was used, and TPO (Peprotech) or Compound No. 1, No. 2, No. 4 or No. 6 in dimethyl sulfoxide in an amount of 0.1% (v/v) was added to a final concentration of […] or 1 μg/mL, respectively. After the cells were incubated in liquid culture at 37° C. for 7 days in a CO2 incubator (5% CO2), the number of CD34^+CD38^− cells was calculated in the same manner as in Example 2.
The expansion efficiencies in the presence of 1 μg/mL of the compounds based on the number of CD34^+CD38^− cells in the presence of 10 ng/mL TPO are shown in Table 5.

[3] = system: HPP-CFU colony forming cells; test: Blood cell colony forming assay, HPP-CFC colonies (Example 5); type: cell-based, human; conditions: liquid cultures of Example 2 (1 μg/mL compound), 500 cells/dish, MethoCult GF H4435, 12 days, averaged
Procedure: The effects of Compounds No. 1, No. 2, and No. 4 of the present invention on hematopoietic progenitor cells were measured by blood cell colony forming assay. The liquid cell cultures obtained in Example 2 were poured into 3.5-cm Petri dishes with MethoCult GF H4435 culture medium (Stemcell Technologies) at 500 cells/dish and incubated in a CO2 incubator (5% CO2, 37° C.) for 12 days. The number of HPP-CFC colonies in each plate was counted under a microscope routinely. The assay was carried out at least in duplicate, and the numbers of HPP-CFC colonies were averaged.

SRC = test: Transplantation of cell culture into NOD/SCID mice, human CD45+ cells in bone marrow (Example 7); type: in vivo; conditions: cells cultured with 1 μg/mL compound vs 10 ng/mL TPO; three weeks after transplantation (FIG. 3)
Procedure: Cultured cells obtained in the same manner as in Example 2 in the presence of TPO (Peprotech) at a final concentration of 10 ng/mL or in the presence of Compound No. 1 or No. 4 at a final concentration of 1 μg/mL was transplanted into at least three 7- to 8-week-old NOD/SCID mice by tail vein injection at 4 to 5×10^4 cells/mouse in terms of the initial number of CD34^+ cells after a sublethal dose of irradiation (2.75 to 3 Gy). Three weeks after the transplantation, the mice were killed, and the bone marrow cells were collected from both thighbones. Subsequently, the bone marrow cells were stained with a human CD45 antibody (APC, Becton, Dickinson and Company), then washed with PBS(−) containing 2% (v/v) FBS and stained with propidium iodide (Sigma-Aldrich Japan) added to a final concentration of 5 μg/mL. The stained cells were analyzed with a flow cytometer JSAN (Bay Bioscience) to determined the proportion of human CD45^+ cells in the bone marrow cells.
The proportions of human CD45^+ cells from the cell cultures incubated in the presence of 1 μg/mL of Compound No. 1 or No. 4 based on the proportion of human CD45^+ cells from the cell culture incubated in the presence of 10 ng/mL TPO are shown in FIG. 3.

CD34^+NGFR^+ cells = test: Transfection of cord blood CD34+ cells with NGFR gene, CD34+NGFR+ cell expansion (Example 10); set-up: species or system human; conditions: TPO 20 ng/mL or compound 0.3 μg/mL, 20 ng/mL SCF and Flt-3; based on number of CD34+NGFR+ cells in the absence of them
Procedure: The human cord blood-derived CD34^+ cells collected or purchased in Example 1 were plated on 3 cm-Petri dishes (TPP) (100000 cells/3 ml/dish). As the culture medium, StemSpan SFEM (Stemcell Technologies) containing 20 ng/ml SCF (Peprotech) and 20 ng/mL Flt-3 (Wako Pure Chemical Industries) was used, and TPO (Peprotech) or Compound No. 1 or No. 4 in dimethyl sulfoxide in an amount of 0.1% (v/v) was added to a final concentration of 20 ng/mL or 0.3 μg/mL, respectively. A negative control culture was incubated in the absence of TPO and the compounds.
After the cells were incubated in liquid culture at 37° C. for 24 hours in a CO2 incubator (5% CO2), 2 ml of the culture medium was sucked out, and 2 ml of the solution of the retrovirus for expression of NGFR prepared in Example 7 (containing 5 μg/mL protamine sulfate (Sigma-Aldrich Japan), 20 ng/ml SCF (Peprotech) and 20 ng/mL Flt-3 (Wako Pure Chemical Industries)) was added. TPO (Peprotech) or Compound No. 1 or No. 4 in dimethyl sulfoxide in an amount of 0.1% (v/v) was further added to a final concentration of […] or 0.3 μg/mL, respectively, and centrifugation at 2000 g was carried out at 32° C. for 30 minutes. Then, the cells were incubated in liquid culture under the same conditions as mentioned above for 24 hours, 2 ml of the culture medium was sucked out, 2 ml of the same solution of the retrovirus for expression of NGFR was added together with TPO or either compound, and centrifugation at 2000 g was carried out at 32° C. for 30 minutes. […] The cells were incubated in liquid culture under the same conditions as mentioned above for 24 hours, and the number of viable cells was counted by trypan blue assay (GIBCO).
The number of CD34^+ cells carrying NGFR introduced via the retrovirus vector (the number of CD34^+NGFR^+ cells) was calculated as follows. […] The stained cells were analyzed with JSAN (Bay Bioscience) to determined the proportion of CD34^+NGFR^+ cells, which was multiplied by the number of viable cells to calculate the number of CD34^+NGFR^+ cells. […]

Compound	fold induction at 1 µg/mL (CD34^+CD38^− cells [1])	other results
C/C(=N\NC(=O)c1ccc(C(=O)Nc2cscn2)s1)c1csc(-c2ccc(Br)cc2)c1O [compound 6]	≥ 10	Expansion efficiency (CD34^+CD38^− cells [2]): 1.4
C/C(=N\NC(=O)c1ccc(C(=O)NCc2ccc(C(N)=O)cc2)s1)c1csc(-c2ccc(Cl)c(Cl)c2)c1O [Compound No. 4]	≥ 10	Number of HPP-CFC colonies [3]: 45; Expansion efficiency (CD34^+CD38^− cells [2]): 1.9; SRC expanding effect (proportion of human CD45+ cells in bone marrow) (SRC): excellent SRC expanding effect; Expansion efficiency (CD34^+NGFR^+ cells): 12.5
C/C(=N\NC(=O)c1ccc(C(=O)NCc2cn(C)cn2)s1)c1csc(-c2ccc(Cl)c(Cl)c2)c1O [Compound No. 1]	≥ 10	Number of HPP-CFC colonies [3]: 41; Expansion efficiency (CD34^+CD38^− cells [2]): 1.9; SRC expanding effect (proportion of human CD45+ cells in bone marrow) (SRC): excellent SRC expanding effect; Expansion efficiency (CD34^+NGFR^+ cells): 9.8
C/C(=N\NC(=O)c1ccc(C(=O)NCc2cc(C)n(C)n2)s1)c1csc(-c2ccc(Cl)c(Cl)c2)c1O [compound 2]	≥ 10	Number of HPP-CFC colonies [3]: 35; Expansion efficiency (CD34^+CD38^− cells [2]): 2.7
thrombopoietin [TPO]	–	Expansion efficiency (CD34^+NGFR^+ cells): 7.7
C/C(=N\NC(=O)c1ccc(C(=O)NCc2ccc(S(C)(=O)=O)cc2)s1)c1csc(-c2ccc(Cl)c(Cl)c2)c1O [compound 59]	5 to 10	–
C/C(=N\NC(=O)c1ccc(C(=O)NCCCN(C)C)s1)c1csc(-c2ccc(Cl)c(Cl)c2)c1O [compound 64]	3 to 5	–
C/C(=N\NC(=O)c1ccc(C(=O)NCc2c(C)nn(C)c2C)s1)c1csc(-c2ccc(Cl)c(Cl)c2)c1O [compound 41]	5 to 10	–
C/C(=N\NC(=O)c1ccc(C(=O)NCc2ccccc2C(N)=O)s1)c1csc(-c2ccc(Br)cc2)c1O [compound 101]	≥ 10	–
C/C(=N\NC(=O)c1ccc(C(=O)NCc2ccc(S(N)(=O)=O)cc2)s1)c1csc(-c2ccc(Cl)c(Cl)c2)c1O [compound 61]	5 to 10	–
C/C(=N\NC(=O)c1ccc(C(=O)NCCCCO)s1)c1csc(-c2ccc(Cl)c(Cl)c2)c1O [compound 73]	5 to 10	–
COc1cc(CNC(=O)c2ccc(C(=O)N/N=C(\C)c3csc(-c4ccc(C(F)(F)F)cc4)c3O)s2)on1 [compound 50]	5 to 10	–
C/C(=N\NC(=O)c1ccc(C(=O)NCc2ccccn2)s1)c1csc(-c2ccc(Cl)c(Cl)c2)c1O [compound 72]	5 to 10	–
C/C(=N\NC(=O)c1ccc(C(=O)NCc2cn(C)cn2)s1)c1csc(-c2ccc(Br)cc2)c1O [compound 130]	≥ 10	–
C/C(=N\NC(=O)c1ccc(C(=O)NCc2ncccn2)s1)c1csc(-c2ccc(Cl)c(Cl)c2)c1O [compound 36]	≥ 10	–
C/C(=N\NC(=O)c1ccc(C(=O)NCCO)s1)c1csc(-c2ccc(Cl)c(Cl)c2)c1O [compound 65]	5 to 10	–
C/C(=N\NC(=O)c1ccc(C(=O)NCc2cccc(C(N)=O)c2)s1)c1csc(-c2ccc(Cl)c(Cl)c2)c1O [compound 92]	≥ 10	–
C/C(=N\NC(=O)c1ccc(C(=O)NCc2ccccc2C(N)=O)s1)c1csc(-c2ccc(OC(F)(F)F)cc2)c1O [compound 104]	≥ 10	–
C/C(=N\NC(=O)c1ccc(C(=O)NCc2cccc(C(N)=O)c2)s1)c1csc(-c2ccc(Br)cc2)c1O [compound 94]	≥ 10	–
C/C(=N\NC(=O)c1ccc(C(=O)NCc2cccc(C(N)=O)c2)s1)c1csc(-c2ccc(C(C)(C)C)cc2)c1O [compound 93]	≥ 10	–
C/C(=N\NC(=O)c1ccc(C(=O)NCc2cc[n+]([O-])cc2)s1)c1csc(-c2ccc(Cl)c(Cl)c2)c1O [compound 3]	≥ 10	–
CCCCCNC(=O)c1ccc(C(=O)N/N=C(\C)c2csc(-c3ccc(Cl)c(Cl)c3)c2O)s1 [compound 69]	3 to 5	–
